The values that follow come from patent US20240376085A1 (Janssen Pharmaceutica NV, priority 2021, published 2024).

What is called IC50 is the concentration that gives 50% inhibition. A high value points to weaker potency.

The target of assay [1] is T1, IL-17A : IL-17RA binding (Homo sapiens, UniProt Q16552, K93Q).
T1 construct: Name: IL-17A-Flag
The experiment in a line: IL-17A(FLAG-tagged):IL-17RA(His-tagged) binding disruption Eu-HTRF assay, Protocol 2. Particulars: FLAG-IL-17A 1 nM at 2x final concentration; average if tested more than once. The text has this:
An antibody directed against the FLAG tag of IL-17A (SEQ ID NO: 1) is labeled with the HTRF donor chromophore (Europium-cryptate). IL-17A is present as a dimer that is “locked into” this quaternary structure due to the formation of loop-spanning […] disulfide bridges. The construct of IL-17RA used in the assay excludes the […] portion of the receptor and is fused to a C-terminal 10×His tag (SEQ ID NO:2). An antibody directed against the His tag of the IL-17RA chimera is labeled with the HTRF acceptor chromophore (“D2”). The fluorescence-resonance energy transfer (FRET) depends on the vicinity of the donor chromophore to the acceptor, and interruption of the binding between the IL-17A and IL-17RA causes the reduction/loss of FRET. Therefore, this assay allows to evaluate the compound effect on the binding IL-17A and IL-17RA by monitoring the fluorescence intensity of donor vs acceptor. The assay was run using either Protocol 1 or Protocol 2 as described below.
Protocol 2. 40 nl of 2-fold serial diluted compound solution for total 22 dilution points is added into each well of a 1536-well, white, low-volume, non-binding plate (Greiner #782904), then 2 μl of FLAG tagged IL-17A at 2× final concentration (1 nM) in solution of PBS+0.01% Triton-X100 is added to each well. The assay plate is briefly centrifuged then incubated for 1 h at rt. A mixed solution is prepared containing 2×5 nM 10HIS×IL-17RA, 2×2.5 nM Eu-anti-FLAG (CISBIO), 2×5 nM D2-anti-HIS (CISBIO) in PBS+0.01% Triton-X100+200 mM Potassium Fluoride (Sigma 60238) and 2 μl of mix is added to each well of the assay plate. The plate is briefly centrifuged then incubated for 2 h at rt. The HTRF intensities at the wavelength of donor (615 nm) and acceptor (665 nm) are measured using BMG Pherastar. The ratio between intensities at two wavelengths is calculated and plotted against the compound concentration and the data is fitted to a one-site competition model to yield IC50 of the compound.
For orientation: In TR-FRET formats the signal depends on donor and acceptor labels being close together.

Assay [2] relates to IL-17A-induced G-CSF production in human normal keratinocyte (NHK). The experiment in a line: NHK assay: IL-17A-induced G-CSF production in normal human keratinocytes. To be noted: 24 h, IL-17A 5 ng/mL, average if tested more than once. Format: cell-based. A digest of the protocol:
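Compound titrations are first mixed with recombinant human IL-17A for 1 h at room temperature. The mixture goes onto adult normal human keratinocytes (final IL-17A 5 ng/mL, 5% FBS, 0.2% DMSO) for 24 h at 37 °C. Secreted G-CSF is then measured by HTRF and IC50 fitted.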

Assay [3] addresses T1, IL-17A : IL-17RA binding. In words: IL-17A(FLAG-tagged):IL-17RA(His-tagged) binding disruption Eu-HTRF assay, Protocol 1. To be noted: FLAG-IL-17A 2.5 nM at 2x final concentration; average if tested more than once. In short, it runs like this:
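IC50 came from a one-site competition fit of the acceptor/donor (665/620 nm) HTRF ratio. His-tagged IL-17RA, Eu-anti-FLAG and D2-anti-His were added after a 1 h rt compound preincubation with FLAG-tagged IL-17A dimer in PBS/0.01% Triton X-100, followed by 2 h at rt before reading.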

T1 sequence (Q16552 with tags, fused parts or gaps K93Q): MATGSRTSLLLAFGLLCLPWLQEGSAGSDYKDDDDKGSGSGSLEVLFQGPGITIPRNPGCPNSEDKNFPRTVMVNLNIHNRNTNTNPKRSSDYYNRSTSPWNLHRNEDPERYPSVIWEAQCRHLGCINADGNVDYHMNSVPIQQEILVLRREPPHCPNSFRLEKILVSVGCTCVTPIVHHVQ

As to `Cc1nonc1C(=O)N[C@H](c1nc2cc([C@@H](COC3CC3)NC(=O)CC3CC(F)(F)C3)ccc2[nH]1)[C@@H](C)O[C@@H](C)C(F)(F)F` [Example 272, N-((1R,2R)-1-(5-((S)-2-Cyclopropoxy-1-(2-(3,3-difluorocyclobutyl)acetamido)ethyl)-1H-benzo[d]imidazol-2-yl)-2-(((S)-1,1,1-trifluoropropan-2-yl)oxy)propyl)-4-methyl-1,2,5-oxadiazole-3-carboxamide], the IC50 is more than 100 nM on IL-17A : IL-17RA binding [1] and less than 50 nM in assay [2] (Homo sapiens, Keratinocyte).

Consider `Cc1nonc1C(=O)N[C@H](c1nc2cc([C@@H](COC3CC3)NC(=O)CC3CC(F)(F)C3)ccc2[nH]1)[C@@H](C)OC(C)(C)C(F)(F)F` [Example 271, N-((1R,2R)-1-(5-((S)-2-Cyclopropoxy-1-(2-(3,3-difluorocyclobutyl)acetamido)ethyl)-1H-benzo[d]imidazol-2-yl)-2-((1,1,1-trifluoro-2-methylpropan-2-yl)oxy)propyl)-4-methyl-1,2,5-oxadiazole-3-carboxamide], for which the IC50 on IL-17A : IL-17RA binding [1] is 50 to 100 nM; in assay [2] (Homo sapiens, Keratinocyte), less than 50 nM.

For `C[C@@H](OC1CC1)[C@H](NC(=O)c1nonc1C1CC1)c1nc2cc([C@@H](COC3CC3)NC(=O)CC3CC(F)(F)C3)ccc2[nH]1` [Example 276, N-((1R,2R)-2-Cyclopropoxy-1-(5-((S)-2-cyclopropoxy-1-(2-(3,3-difluorocyclobutyl)acetamido)ethyl)-1H-benzo[d]imidazol-2-yl)propyl)-4-cyclopropyl-1,2,5-oxadiazole-3-carboxamide], the IC50 is 50 to 100 nM on IL-17A : IL-17RA binding [1] and less than 50 nM in assay [2] (Homo sapiens, Keratinocyte).

Consider `Cc1nonc1C(=O)N[C@H](c1nc2cc([C@@H](COC3CC3)NC(=O)C[C@H]3CC3(F)F)ccc2[nH]1)[C@@H](C)OC(C)(C)C(F)(F)F` [Example 270, N-((1R,2R)-1-(5-((S)-2-Cyclopropoxy-1-(2-((S)-2,2-difluorocyclopropyl)acetamido)ethyl)-1H-benzo[d]imidazol-2-yl)-2-((1,1,1-trifluoro-2-methylpropan-2-yl)oxy)propyl)-4-methyl-1,2,5-oxadiazole-3-carboxamide], for which the IC50 was in the range of 50 to 100 nM on IL-17A : IL-17RA binding [1] and 50 to 100 nM in assay [2] (Homo sapiens, Keratinocyte).

As to `CC(C)n1nccc1C(=O)N[C@H](c1nc2cc([C@@H](COC3CC3)NC(=O)CC3CC(F)(F)C3)ccc2[nH]1)[C@@H](C)O[C@@H](C)C(F)(F)F` [Example 273, N-((1R,2R)-1-(5-((S)-2-Cyclopropoxy-1-(2-(3,3-difluorocyclobutyl)acetamido)ethyl)-1H-benzo[d]imidazol-2-yl)-2-(((S)-1,1,1-trifluoropropan-2-yl)oxy)propyl)-1-isopropyl-1H-pyrazole-5-carboxamide], the IC50 was more than 100 nM on IL-17A : IL-17RA binding [1] and less than 50 nM in assay [2] (Homo sapiens, Keratinocyte).

Regarding `C[C@@H](NC(=O)CCC(F)(F)F)c1ccc2[nH]c([C@@H](NC(=O)c3cnnn3CCC3CC3)C3CCC(F)(F)CC3)nc2c1` [Example 13, 3-(2-Cyclopropylethyl)-N—[(S)-(4,4-difluorocyclohexyl)-[6-[(1R)-1-(4,4,4-trifluorobutanoylamino)ethyl]-1H-benzimidazol-2-yl]methyl]triazole-4-carboxamide], the IC50 is more than 100 nM at IL-17A : IL-17RA binding [3] and more than 100 nM in assay [2] (Homo sapiens, Keratinocyte).

With `CC(C)n1nccc1C(=O)NC(COC(C)(C)C(F)(F)F)c1nc2ccc([C@H](NC(=O)CC3CC(F)(F)C3)C3CC3)cc2[nH]1` (single isomer, unassigned) [Example 162, N—((S*)-1-(6-((R)-Cyclopropyl(2-(3,3-difluorocyclobutyl)acetamido)methyl)-1H-benzo[d]imidazol-2-yl)-2-((1,1,1-trifluoro-2-methylpropan-2-yl)oxy)ethyl)-1-isopropyl-1H-pyrazole-5-carboxamide], the IC50 is more than 100 nM at IL-17A : IL-17RA binding [3] and more than 100 nM in assay [2] (Homo sapiens, Keratinocyte).

Take `C[C@@H](NC(=O)CCC(F)(F)F)c1ccc2[nH]c([C@@H](NC(=O)[C@H]3CC[C@@H]3CF)C3CCC(F)(F)CC3)nc2c1` (single isomer, unassigned) [Example 114]: the IC50 is more than 100 nM on IL-17A : IL-17RA binding [3] and more than 100 nM in assay [2] (Homo sapiens, Keratinocyte).

On to `C[C@@H](NC(=O)CCC(F)(F)F)c1ccc2[nH]c([C@@H](NC(=O)c3c(C#N)cnn3CC3CCC3)C3CCC(F)(F)CC3)nc2c1` [Example 90, 4-Cyano-1-(cyclobutylmethyl)-N—((S)-(4,4-difluorocyclohexyl)(5-((R)-1-(4,4,4-trifluorobutanamido)ethyl)-1H-benzo[d]imidazol-2-yl)methyl)-1H-pyrazole-5-carboxamide], for which the IC50 on IL-17A : IL-17RA binding [3] is more than 100 nM; in assay [2] (Homo sapiens, Keratinocyte), more than 100 nM.

`Cn1nccc1C(=O)N[C@H](c1nc2cc(C(NC(=O)CCC(F)(F)F)C3CC3)ccc2[nH]1)C1CCC(F)(F)CC1` (single isomer, unassigned) [Example 55, N—((S)-(5-((R*)-Cyclopropyl(4,4,4-trifluorobutanamido)methyl)-1H-benzo[d]imidazol-2-yl)(4,4-difluorocyclohexyl)methyl)-1-methyl-1H-pyrazole-5-carboxamide]: the IC50 (at IL-17A : IL-17RA binding [3]; in assay [2]) was more than 100 nM each time.

Consider `Cc1nonc1C(=O)N[C@H](c1nc2cc([C@@H](NC(=O)CC3CC(F)(F)C3)C3CC3)ccc2[nH]1)C1CCC(F)(F)CC1` [Example 145, N—((S)-(5-((S)-Cyclopropyl(2-(3,3-difluorocyclobutyl)acetamido)methyl)-1H-benzo[d]imidazol-2-yl)(4,4-difluorocyclohexyl)methyl)-4-methyl-1,2,5-oxadiazole-3-carboxamide], for which the 50% inhibitory concentration (IC50) at IL-17A : IL-17RA binding [3] is more than 100 nM; in assay [2] (Homo sapiens, Keratinocyte), more than 100 nM.

Regarding `C[C@H](OCC(NC(=O)c1nonc1C1CC1)c1nc2ccc([C@H](NC(=O)CC3CC(F)(F)C3)C3CC3)cc2[nH]1)C(F)(F)F` (single isomer, unassigned) [Example 154, 4-Cyclopropyl-N—((R*)-1-(6-((R)-cyclopropyl(2-(3,3-difluorocyclobutyl)acetamido)methyl)-1H-benzo[d]imidazol-2-yl)-2-(((S)-1,1,1-trifluoropropan-2-yl)oxy)ethyl)-1,2,5-oxadiazole-3-carboxamide], the IC50 was less than 50 nM on IL-17A : IL-17RA binding [3] and 50 to 100 nM in assay [2] (Homo sapiens, Keratinocyte).

For `C[C@@H](NC(=O)CCC(F)(F)F)c1ccc2[nH]c([C@@H](NC(=O)c3nn(CC4CCC4)cc3C#N)C3CCC(F)(F)CC3)nc2c1` [Example 91, 4-Cyano-1-(cyclobutylmethyl)-N—((S)-(4,4-difluorocyclohexyl)(5-((R)-1-(4,4,4-trifluorobutanamido)ethyl)-1H-benzo[d]imidazol-2-yl)methyl)-1H-pyrazole-3-carboxamide], the IC50 was more than 100 nM at IL-17A : IL-17RA binding [3] and more than 100 nM in assay [2] (Homo sapiens, Keratinocyte).

For the compound `C[C@@H](NC(=O)CCC(F)(F)F)c1ccc2[nH]c([C@@H](NC(=O)[C@H]3C[C@@H]3C(F)(F)F)C3CCC(F)(F)CC3)nc2c1` (relative stereo) [Example 105, trans-(1S*,2S*)—N—((S)-(4,4-Difluorocyclohexyl)(5-((R)-1-(4,4,4-trifluorobutanamido)ethyl)-1H-benzo[d]imidazol-2-yl)methyl)-2-(trifluoromethyl)cyclopropane-1-carboxamide], the IC50 is more than 100 nM on IL-17A : IL-17RA binding [3] and more than 100 nM in assay [2] (Homo sapiens, Keratinocyte).
